Experimental data from US11214562B2, “Cyclohexyl benzamide compounds” (Eli Lilly and Company, priority 2016, dated 2022).

Legend:
human GPR142 = biological target: T1, human GPR142 (Homo sapiens, UniProt Q7Z601); assay: GPR142 agonist effect as measured by IP-1 assay (IP-One HTRF); format: cell-based
T1 construct: expressed in transfected cells; host or cells: HEK293 (kept under G418 selection)
T1 sequence (Q7Z601 1-462): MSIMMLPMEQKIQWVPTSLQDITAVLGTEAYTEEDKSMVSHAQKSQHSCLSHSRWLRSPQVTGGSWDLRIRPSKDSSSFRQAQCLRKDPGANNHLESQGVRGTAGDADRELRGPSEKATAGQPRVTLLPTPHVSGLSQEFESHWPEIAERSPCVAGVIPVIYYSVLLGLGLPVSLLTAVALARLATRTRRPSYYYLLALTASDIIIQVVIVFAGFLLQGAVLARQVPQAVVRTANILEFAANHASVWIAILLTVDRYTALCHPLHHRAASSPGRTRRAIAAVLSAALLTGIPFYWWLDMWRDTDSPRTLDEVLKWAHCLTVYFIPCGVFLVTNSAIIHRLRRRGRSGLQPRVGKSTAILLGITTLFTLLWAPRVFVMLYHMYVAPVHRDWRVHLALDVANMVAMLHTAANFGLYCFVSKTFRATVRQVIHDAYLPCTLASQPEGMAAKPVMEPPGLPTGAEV
Description: Biological Assays GPR142 Agonist Effect as Measured by IP-1 Assay
HEK293 cells expressing human GPR142 are maintained in DMEM supplemented with 10% FBS and 800 μg/ml G418 (Geneticin®) at 37° C. and 5% CO2. Plate the cells in 384 well plates at 5000 cells per well and allow 18 hrs for attachment. Add the test compound at varying concentrations ranging from 30 μM to 1 nM. Incubate the cells for 1 hr. IP-1 measurements are performed using an IP-One HTRF® assay kit (Cisbio) according to manufacturer's protocol using an assay buffer containing 1×HBSS (+Ca, +Mg), 0.1% BSA, 50 mM LiCl and 20 mM HEPES, pH 7.2. Stop the reaction by the addition of IP1-d2 (IP-1 coupled to an organic HTRF acceptor) followed by cryptate solution (http://www.htrf.com/usa/htrf-chemistry). Incubate the plates at 25° C. for 1 hr. Read the fluorescence in an Envision instrument at 665 nm and 620 nm wavelength. Calculate the ratio of 665 nm/620 nm fluorescence and convert to IP-1 levels using an IP-1 standard curve. The data is fit to a 4 parameter-fit logistics to determine EC50 values.

GPR142 = biological target: T2, GPR142 (Mus musculus, UniProt Q7TQN9); assay: Intraperitoneal glucose tolerance test (IPGTT); format: in vivo; settings: male C57BL/6 mice, oral dose 90 min prior to 2 g/kg i.p. glucose challenge
T2 construct: from tissue; host or cells: whole animal, male C57BL/6 mice
T2 sequence (Q7TQN9 1-365): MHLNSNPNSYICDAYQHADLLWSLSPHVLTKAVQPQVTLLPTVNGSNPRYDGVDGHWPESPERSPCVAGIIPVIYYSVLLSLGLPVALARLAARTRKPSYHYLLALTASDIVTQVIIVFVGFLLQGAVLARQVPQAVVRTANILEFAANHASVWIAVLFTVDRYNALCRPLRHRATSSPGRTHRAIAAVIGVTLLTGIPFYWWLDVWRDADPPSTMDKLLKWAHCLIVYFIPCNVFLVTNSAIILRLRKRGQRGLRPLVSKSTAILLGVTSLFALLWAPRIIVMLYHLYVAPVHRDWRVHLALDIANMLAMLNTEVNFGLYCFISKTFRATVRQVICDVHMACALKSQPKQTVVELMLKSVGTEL
Excerpt: Intraperitoneal Glucose Tolerance Tests (IPGTT)
The IPGTT assay is used to examine the ability of a compound to activate GPR142 in vivo resulting in anti-diabetic efficacy, i.e. reduction in plasma glucose levels. Male C57BL/6 mice (8-10 weeks of age) are fed normal rodent chow diet and water ad libitum. On the night before the study, fast the animals overnight in clean cages. On the morning of the study, orally dose the animals with either vehicle or a test compound at the indicated doses 90 min prior to the glucose challenge (2 g/kg) by intraperitoneal injection. Determine the blood glucose levels from tail bleeds taken immediately prior to compound dosing (−90 min) and 0, 15, 30, and 60 min after glucose challenge using handheld glucometers. Use the blood glucose profile from t=0 to t=60 min to calculate an area under the curve (AUC) for each treatment. Calculate the percent glucose lowering. The AUC is calculated for each treatment group with respect to the AUC of vehicle group. A compound with a reduction in glucose AUC (P<0.05) is considered positive in the assay.

- EC50 (human GPR142; HEK293 cells expressing human GPR142, 1 hr incubation, IP-1 HTRF, read-out: hGPR142 IP1 EC50): 0.0144 µM
- hGPR142 IP1 relative efficacy (human GPR142; HEK293 cells expressing human GPR142, IP-1 HTRF): 110%
Structure (SMILES): Cc1ncn(C)c1-c1nnc([C@H]2CCC[C@@H](N(C)C(=O)c3cccc(Cl)c3)C2)[nH]1 [Example 1]
- IPGTT outcome (reduction in glucose AUC, P<0.05, is positive) (GPR142): positive
- ED50 (glucose AUC lowering in IPGTT) (GPR142; AUC t=0 to 60 min): 0.25 mpk
